# Tests used:
# urease = urease (Canavalia ensiformis, UniProt P07374); conditions: mean ± SEM, triplicate; for IC50: read-out: urease inhibition, IC50
# AChE = AChE (Homo sapiens, UniProt P22303); conditions: for AChE inhibition, inhibition (%) at 0.5 mM / IC50: mean ± SEM, triplicate; for IC50: read-out: AChE inhibition, IC50
# α-glucosidase = α-glucosidase (Saccharomyces cerevisiae, UniProt P53341); assay: α-Glucosidase assay; format: biochemical; conditions: mean ± SEM, triplicate; for IC50: read-out: α-glucosidase inhibition, IC50
# Sequence of α-glucosidase (P53341 whole entry): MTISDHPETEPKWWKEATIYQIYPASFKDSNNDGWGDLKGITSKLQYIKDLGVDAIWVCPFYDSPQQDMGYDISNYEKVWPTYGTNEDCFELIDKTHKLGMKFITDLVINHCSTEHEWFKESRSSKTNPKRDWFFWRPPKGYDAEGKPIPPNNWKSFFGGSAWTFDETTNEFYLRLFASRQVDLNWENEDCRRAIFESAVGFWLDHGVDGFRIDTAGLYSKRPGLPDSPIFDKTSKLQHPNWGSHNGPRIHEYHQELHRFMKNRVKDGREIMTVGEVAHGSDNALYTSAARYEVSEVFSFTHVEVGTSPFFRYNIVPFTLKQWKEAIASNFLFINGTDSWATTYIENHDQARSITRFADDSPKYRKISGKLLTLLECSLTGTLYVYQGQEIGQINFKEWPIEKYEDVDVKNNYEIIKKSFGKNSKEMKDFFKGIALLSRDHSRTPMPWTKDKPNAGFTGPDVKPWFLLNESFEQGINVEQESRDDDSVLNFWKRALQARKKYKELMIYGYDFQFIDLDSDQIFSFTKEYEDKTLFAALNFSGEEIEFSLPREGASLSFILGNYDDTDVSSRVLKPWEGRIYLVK
# LOX = target: T1, LOX (Glycine max, UniProt P08170); assay: Lipoxygenase assay; format: biochemical; conditions: mean ± SEM, triplicate
# T1 sequence (P08170 1-839): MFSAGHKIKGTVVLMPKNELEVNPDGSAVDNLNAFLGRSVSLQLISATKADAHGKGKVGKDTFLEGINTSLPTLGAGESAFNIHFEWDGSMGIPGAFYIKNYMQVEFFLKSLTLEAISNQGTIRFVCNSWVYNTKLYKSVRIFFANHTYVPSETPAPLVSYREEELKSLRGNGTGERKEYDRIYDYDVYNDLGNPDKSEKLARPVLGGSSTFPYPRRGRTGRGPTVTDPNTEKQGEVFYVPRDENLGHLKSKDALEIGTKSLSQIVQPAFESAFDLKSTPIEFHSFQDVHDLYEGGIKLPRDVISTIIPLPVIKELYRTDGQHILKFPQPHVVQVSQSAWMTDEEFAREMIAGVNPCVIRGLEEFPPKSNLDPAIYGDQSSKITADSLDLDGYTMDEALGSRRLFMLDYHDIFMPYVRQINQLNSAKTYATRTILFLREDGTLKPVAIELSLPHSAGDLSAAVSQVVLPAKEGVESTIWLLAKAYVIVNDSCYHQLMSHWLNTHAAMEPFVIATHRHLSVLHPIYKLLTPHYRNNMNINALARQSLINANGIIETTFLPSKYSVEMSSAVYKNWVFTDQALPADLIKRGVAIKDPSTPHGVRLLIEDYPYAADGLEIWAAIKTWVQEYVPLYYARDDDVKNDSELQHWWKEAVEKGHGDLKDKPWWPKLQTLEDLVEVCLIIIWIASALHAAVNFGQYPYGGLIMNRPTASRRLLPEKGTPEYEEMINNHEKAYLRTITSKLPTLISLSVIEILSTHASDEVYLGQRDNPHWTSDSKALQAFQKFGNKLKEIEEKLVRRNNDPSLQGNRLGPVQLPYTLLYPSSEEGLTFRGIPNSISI
# BChE = BChE (Homo sapiens, UniProt P06276); conditions: mean ± SEM, triplicate
# Sequence of BChE (P06276 29-602, species assumed): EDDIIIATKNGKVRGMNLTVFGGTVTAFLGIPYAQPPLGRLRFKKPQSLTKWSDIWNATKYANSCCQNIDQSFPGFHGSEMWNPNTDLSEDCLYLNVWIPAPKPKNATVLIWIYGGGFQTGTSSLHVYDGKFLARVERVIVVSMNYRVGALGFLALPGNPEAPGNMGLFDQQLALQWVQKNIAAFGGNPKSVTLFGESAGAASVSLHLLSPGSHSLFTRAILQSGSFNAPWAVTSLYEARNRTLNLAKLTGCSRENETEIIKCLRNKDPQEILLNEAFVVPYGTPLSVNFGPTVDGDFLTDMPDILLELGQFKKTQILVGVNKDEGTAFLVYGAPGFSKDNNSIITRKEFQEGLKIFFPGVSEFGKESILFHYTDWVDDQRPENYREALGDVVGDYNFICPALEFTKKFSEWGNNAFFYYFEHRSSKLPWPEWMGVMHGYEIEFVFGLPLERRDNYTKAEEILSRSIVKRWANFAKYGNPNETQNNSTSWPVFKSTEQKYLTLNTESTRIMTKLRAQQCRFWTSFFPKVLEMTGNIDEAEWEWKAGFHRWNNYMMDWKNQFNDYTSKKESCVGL
# Sequence of AChE (P22303 32-614): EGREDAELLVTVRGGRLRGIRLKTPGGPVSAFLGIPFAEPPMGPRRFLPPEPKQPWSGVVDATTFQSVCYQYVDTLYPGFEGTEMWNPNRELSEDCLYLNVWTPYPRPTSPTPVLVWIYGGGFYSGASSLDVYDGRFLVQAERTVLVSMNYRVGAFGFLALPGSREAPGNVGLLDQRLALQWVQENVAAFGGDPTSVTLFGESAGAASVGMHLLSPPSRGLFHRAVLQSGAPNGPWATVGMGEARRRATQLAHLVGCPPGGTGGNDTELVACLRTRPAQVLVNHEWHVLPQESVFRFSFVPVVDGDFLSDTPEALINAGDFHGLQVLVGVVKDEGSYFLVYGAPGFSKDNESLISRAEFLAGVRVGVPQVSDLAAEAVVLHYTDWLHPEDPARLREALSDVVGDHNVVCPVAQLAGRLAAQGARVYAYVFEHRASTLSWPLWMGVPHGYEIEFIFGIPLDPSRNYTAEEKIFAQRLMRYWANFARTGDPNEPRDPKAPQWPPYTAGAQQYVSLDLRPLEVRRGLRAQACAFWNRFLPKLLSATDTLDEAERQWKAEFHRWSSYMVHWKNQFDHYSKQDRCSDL
# Sequence of urease (P07374 whole entry, looked up): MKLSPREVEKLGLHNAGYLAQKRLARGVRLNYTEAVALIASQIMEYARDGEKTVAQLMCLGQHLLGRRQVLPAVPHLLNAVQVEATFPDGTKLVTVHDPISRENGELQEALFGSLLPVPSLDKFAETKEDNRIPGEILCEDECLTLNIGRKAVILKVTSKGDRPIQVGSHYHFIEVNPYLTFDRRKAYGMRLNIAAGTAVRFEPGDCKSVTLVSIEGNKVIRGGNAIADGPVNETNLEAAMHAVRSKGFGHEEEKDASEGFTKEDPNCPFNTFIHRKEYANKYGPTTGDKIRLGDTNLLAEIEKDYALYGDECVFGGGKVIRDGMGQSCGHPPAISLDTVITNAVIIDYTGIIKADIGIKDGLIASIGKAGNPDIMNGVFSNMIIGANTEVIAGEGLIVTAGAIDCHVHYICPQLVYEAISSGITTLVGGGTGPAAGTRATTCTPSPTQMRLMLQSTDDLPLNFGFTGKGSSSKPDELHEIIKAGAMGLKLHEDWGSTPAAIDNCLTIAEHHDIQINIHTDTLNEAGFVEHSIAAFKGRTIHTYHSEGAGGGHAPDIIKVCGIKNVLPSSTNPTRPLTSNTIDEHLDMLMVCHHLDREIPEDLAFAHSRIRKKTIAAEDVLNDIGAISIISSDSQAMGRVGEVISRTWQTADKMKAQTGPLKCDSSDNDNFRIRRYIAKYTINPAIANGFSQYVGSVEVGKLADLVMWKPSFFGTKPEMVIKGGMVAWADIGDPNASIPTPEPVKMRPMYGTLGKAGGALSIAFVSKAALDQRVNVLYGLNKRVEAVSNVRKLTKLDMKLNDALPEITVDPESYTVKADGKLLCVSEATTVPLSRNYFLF
Structure (SMILES),"urease inhibition, inhibition (%) at 0.25 mM (urease) [%]","AChE inhibition, inhibition (%) at 0.5 mM (AChE) [%]",IC50 (AChE) [µM],"α-glucosidase inhibition, inhibition (%) at 0.5 mM (α-glucosidase) [%]",IC50 (α-glucosidase) [µM],"LOX inhibition, inhibition (%) at 0.25 mM (LOX) [%]","BChE inhibition, inhibition (%) at 0.5 mM (BChE) [%]","IC50 (LOX; read-out: LOX inhibition, IC50) [µM]",IC50 (urease) [µM],activity against AChE enzyme (in words) (AChE),"IC50 (BChE; read-out: BChE inhibition, IC50) [nM]"
"COc1ccccc1NC(=O)CSc1nnc(C2CCN(S(=O)(=O)c3ccc(C)cc3)CC2)n1C [Compound 12g, 1-(4-toluenesulfonyl)-4-{3-[N-(2-methoxyphenyl)-2-ethanamoylthio]-4-methyl-4H-1,2,4-triazol-5-yl} piperidine]",42.87 ± 1.51,79.24 ± 0.89,149.8 ± 0.67,71.45 ± 1.73,267.4 ± 1.52,41.55 ± 0.51,24.72 ± 0.56,–,–,–,–
"CCOc1ccc(NC(=O)CSc2nnc(C3CCN(S(=O)(=O)c4ccc(C)cc4)CC3)n2C)cc1 [Compound 12h, 1-(4-toluenesulfonyl)-4-{3-[N-(4-ethoxyphenyl)-2-ethanamoylthio]-4-methyl-4H-1,2,4-triazol-5-yl} piperidine]",42.63 ± 1.52,37.41 ± 0.62,–,73.12 ± 1.58,286.6 ± 1.25,63.53 ± 0.52,16.51 ± 0.35,92.45 ± 0.26,–,–,–
"Cc1ccc(S(=O)(=O)N2CCC(c3nnc(SCC(=O)Nc4cccc(C)c4C)n3C)CC2)cc1 [Compound 12i, 1-(4-toluenesulfonyl)-4-{3-[N-(2,3-dimethylphenyl)-2-ethanamoylthio]-4-methyl-4H-1,2,4-triazol-5-yl} piperidine]",75.82 ± 1.79,82.51 ± 0.85,117.4 ± 0.64,31.53 ± 1.37,–,24.12 ± 0.59,36.47 ± 0.75,–,143 ± 1.52,–,–
"Cc1ccc(S(=O)(=O)N2CCC(c3nnc(SCC(=O)Nc4ccc(C)cc4C)n3C)CC2)cc1 [Compound 12j, 1-(4-toluenesulfonyl)-4-{3-[N-(2,4-dimethylphenyl)-2-ethanamoylthio]-4-methyl-4H-1,2,4-triazol-5-yl} piperidine]",73.52 ± 1.65,88.36 ± 0.79,94.63 ± 0.57,72.25 ± 1.85,365.9 ± 1.42,23.54 ± 0.85,37.62 ± 0.87,–,167.2 ± 1.34,excellent activity,–
"Cc1ccc(S(=O)(=O)N2CCC(c3nnc(SCC(=O)Nc4cc(C)ccc4C)n3C)CC2)cc1 [Compound 12k, 1-(4-toluenesulfonyl)-4-{3-[N-(2,5-dimethylphenyl)-2-ethanamoylthio]-4-methyl-4H-1,2,4-triazol-5-yl} piperidine]",76.15 ± 1.52,65.27 ± 0.74,212.9 ± 0.59,71.16 ± 1.64,385.6 ± 1.32,29.45 ± 0.72,49.23 ± 0.94,–,165.4 ± 1.27,–,–
"Cc1ccc(S(=O)(=O)N2CCC(c3nnc(SCC(=O)Nc4c(C)cccc4C)n3C)CC2)cc1 [Compound 12l, 1-(4-toluenesulfonyl)-4-{3-[N-(2,6-dimethylphenyl)-2-ethanamoylthio]-4-methyl-4H-1,2,4-triazol-5-yl} piperidine]",46.19 ± 1.76,62.25 ± 0.86,287.7 ± 0.63,53.67 ± 1.67,463.3 ± 1.36,45.29 ± 0.56,41.87 ± 0.63,–,–,–,–
"Cc1ccc(S(=O)(=O)N2CCC(c3nnc(SCC(=O)Nc4cc(C)cc(C)c4)n3C)CC2)cc1 [Compound 12m, 1-(4-toluenesulfonyl)-4-{3-[N-(3,5-dimethylphenyl)-2-ethanamoylthio]-4-methyl-4H-1,2,4-triazol-5-yl} piperidine]",98.65 ± 1.67,92.73 ± 0.87,0.42 ± 0.67,87.21 ± 1.46,142.7 ± 1.23,37.45 ± 0.37,91.25 ± 0.45,–,14.3 ± 1.27,excellent activity,38
